The text below walks through data of paper PMC11406518, “Intranasal Administration of Bedaquiline-Loaded Fucosylated Liposomes Provides Anti-Tubercular Activity while Reducing the Potential for Systemic Side Effects” (ACS Infectious Diseases, 2024).

A word on the logP: it is the decadic logarithm of the partition coefficient of the neutral form, usually between octanol and water.

Values after ≈ are worked out from the molar mass of the structure shown.

Details of data set [1]: method as in PMID 22155815. The following applies: oral route; cited from earlier work.
On the set-up of data set [2]: method as in PMID 22155815, PMID 34370588. To be noted: in vitro; cited from earlier work.
For a further data set, the system named is mycobacteria. To be noted: cited from earlier work.
On the set-up of data set [3]: method as in PMID 35112802. To be noted: TargoSphere platform; cited from earlier work.
The conditions of data set [4]: estimated; 25 °C; cited from earlier work.
For data set [5] the following is noted: estimated; cited from earlier work.
Data set [6] deals with Mtb H37Rv in murine bone marrow-derived macrophages. In words: in vitro antitubercular activity in infected murine bone marrow-derived macrophages. It is filed as cell-based, Mycobacterium tuberculosis. The following applies: primary BMDM infected with H37Rv; doses 1 and 0.1 μg/mL.
The test system of data set [7] is mycobacterial ATP synthase. Also on record: method as in PMID 20521931. To be noted: selectivity; cited from earlier work.
The conditions of data set [8]: cited from earlier work.
A further data set has as its system H37Rv strain of Mtb. Also on record: method as in PMID 22155815. To be noted: cited from earlier work.
[9] abbreviates: coadministration with high-fat meals.

Take `CNCCC(O)(c1cccc2ccccc12)C(c1ccccc1)c1cc2cc(Br)ccc2nc1OC` (stereo not drawn) [M2, N-desmethyl-bedaquiline]: the “AUCLung:AUCplasma ratio” value in [1] is recorded as 100–200. The cytotoxicity and phospholipidogenesis entry in data set [2] is “higher cytotoxicity and phospholipidogenesis”. Besides, the “antimycobacterial activity, fold lower than BDQ” value with mycobacteria is 4–6 fold.

`COc1nc2ccc(Br)cc2cc1[C@@H](c1ccccc1)[C@@](O)(CCN(C)C)c1cccc2ccccc12` [BDQ, Bedaquiline]: the loading capacity in data set [3] is reported as 5–7 % of the total mass. In addition, the “solubility in aqueous media” value in [4] was 2 ng/mL (≈ 0.0036 µM). In addition, in [5], the logP is on record as 7.74. The “reduction in CFU/mL” value in data set [6] is reported as “significant reductions in CFU/mL”. Moreover, the “higher affinity for mycobacterial ATP synthase versus eukaryotic ATP synthase” value in data set [7] is > 20,000. In data set [8] (administered orally), the bioavailability entry was “high bioavailability” and the median tmax is approximately 5 h. In data set [8] (setting [9]), the “increase of AUC with food” value is listed as 2 fold and the “increase of Cmax with food” value is on record as 2 fold. In addition, in data set [8] (in vivo), the protein binding is given as more than 99%, the terminal elimination half-life is given as 4–5 months and the volume of distribution is recorded as 164 L. Further, in the data set on H37Rv strain of Mtb, the “minimum bactericidal concentration (MBC)” value is 0.3 µg/mL (≈ 0.54 µM) and the “minimum inhibitory concentration (MIC)” value is 0.06 µg/mL (≈ 0.108 µM).

In the case of `C[C@H]1COc2c(N3CCN(C)CC3)c(F)cc3c(=O)c(C(=O)O)cn1c23` [levofloxacin], in [3], the encapsulation efficiency was 66–80%.
